# Measured values from patent US6737383B1, “Herbicidal oxadiazolidines” (priority 1999, dated 2004).
# Legend:
# soybean = test: Test B pre/postemergence soybean; format: in vivo, Glycine max
# In short: (§1)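 Herbicidal effect was estimated by eye on a ten-point control scale after plants spent twelve to sixteen days in a greenhouse following soil or foliar treatment. Foliar sprays targeted plants at one to four leaves; all doses were formulated in a non-phytotoxic solvent with surfactant.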
# winter wheat [1] = test: Test E winter wheat; format: in vivo, Triticum aestivum; settings: Postemergence
# In short: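 Greenhouse-grown plants are treated (postemergence: 1- to 4-leaf stage, sandy loam/potting mix 60:40), then evaluated visually versus untreated controls some 21 to 28 days later.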
# winter wheat [2] = test: Test E winter wheat; format: in vivo, Triticum aestivum; settings: Preemergence
# green foxtail = test: Test E green foxtail; format: in vivo, Setaria viridis; settings: Preemergence
# blackgrass = test: Test E blackgrass; format: in vivo, Alopecurus myosuroides; settings: Preemergence
# Italian ryegrass = test: Test E Italian ryegrass; format: in vivo, Lolium multiflorum; settings: Preemergence
# wild oat [3] = test: Test E wild oat; format: in vivo, Avena fatua; settings: Preemergence
# wild oat [4] = test: Test B pre/postemergence wild oat; format: in vivo, Avena fatua
# In short: as §1
# crabgrass = test: Test B pre/postemergence crabgrass; format: in vivo, Digitaria sanguinalis
# In short: as §1
# wheat = test: Test B pre/postemergence wheat; format: in vivo, Triticum aestivum
# In short: as §1
# winter barley = test: Test E winter barley; format: in vivo, Hordeum vulgare; settings: Preemergence
# smallflower flatsedge = test: Test B flood test smallflower flatsedge; format: in vivo, Cyperus difformis
# In short: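 Each value is a visual injury score relative to controls, with 10 meaning complete control and 0 no effect. Evaluation took place twelve to sixteen days after the 2-leaf-stage plants were treated and kept in the greenhouse.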
# [5] = Postemergence, Rate 62 g/ha, scale 0 to 10, 0 is no effect, 10 is complete control
# [6] = Postemergence, Rate 250 g/ha, scale 0 to 10, 0 no effect, 10 complete control
# [7] = Preemergence, Rate 62 g/ha, scale 0 to 10 (0 no effect, 10 complete control)
# [8] = Preemergence, Rate 125 g/ha, scale 0 to 10 (0 no effect, 10 complete control)
# [9] = Preemergence, Rate 250 g/ha, scale of 0 to 10 where 0 is no effect and 10 is complete control
# [10] = Preemergence, Rate 500 g/ha, scale 0 (no effect) to 10 (complete control)
# [11] = Rate 125 g/ha, Postemergence, scale 0 to 10, 0 no effect, 10 complete control
# [12] = Rate 500 g/ha, Postemergence, scale 0 to 10, 0 no effect, 10 complete control
# [13] = Rate 500 g/ha, 0 to 100 scale where 0 is no effect and 100 is complete control
# [14] = Rate 1000 g/ha, 0 to 100 scale where 0 is no effect and 100 is complete control
# [15] = Preemergence, Rate 62 g/ha, scale of 0 to 10 where 0 is no effect and 10 is complete control
# [16] = Preemergence, Rate 125 g/ha, 0 is no effect, 10 is complete control
# [17] = Preemergence, Rate 250 g/ha, scale 0 to 10, 0 is no effect, 10 is complete control
# [18] = Preemergence, Rate 500 g/ha, scale of 0 to 10 where 0 is no effect and 10 is complete control
# [19] = Rate 62 g/ha, Postemergence, scale of 0 to 10 where 0 is no effect and 10 is complete control
# [20] = Rate 125 g/ha, Postemergence, scale 0 to 10
# [21] = Rate 500 g/ha, Postemergence, scale 0 to 10
# [22] = Rate 62 g/ha, 0 to 100 scale, 0 no effect, 100 complete control
# [23] = Rate 125 g/ha, 0 to 100 scale (0 no effect, 100 complete control)
structure (smiles),measurement,setting,value
Cc1ccccc1-n1c(=O)on(C(=O)N(c2cc(F)cc(F)c2)C(C)C)c1=O [Compound 67],Soybean plant response rating,soybean; [5],0
same,Soybean plant response rating,soybean; [6],1
same,Soybean plant response rating,soybean; [7],0
same,"Plant response rating, Soybean",soybean; [8],0
same,"Plant response rating, Soybean",soybean; [9],0
same,Soybean plant response rating,soybean; [10],0
same,Soybean plant response rating,soybean; [11],1
same,Soybean plant response rating,soybean; [12],1
same,"Plant response rating, Wheat (winter)","winter wheat [1]; Rate 250 g/ha, 0 to 100 scale (0 no effect, 100 complete control)",20
same,"Plant response rating, Wheat (winter)","winter wheat [1]; Rate 1000 g/ha, 0 to 100 scale, 0 is no effect and 100 is complete control",40
same,"Plant response rating, Wheat (winter)","winter wheat [1]; Rate 500 g/ha, 0 to 100 scale, 0 no effect, 100 complete control",30
same,"Plant response rating, Wheat (winter)","winter wheat [2]; Rate 250 g/ha, 0 to 100 scale",10
same,"Plant response rating, Wheat (winter)",winter wheat [2]; [13],10
same,"Plant response rating, Wheat (winter)",winter wheat [2]; [14],20
same,"Plant response rating, Green foxtail","green foxtail; Rate 250 g/ha, 0 to 100 scale",30
same,"Plant response rating, Green foxtail",green foxtail; [13],55
same,"Plant response rating, Green foxtail",green foxtail; [14],60
same,"Plant response rating, Blackgrass","blackgrass; Rate 250 g/ha, 0 to 100 scale",10
same,"Plant response rating, Blackgrass",blackgrass; [13],20
same,"Plant response rating, Blackgrass",blackgrass; [14],40
same,"Plant response rating, I. Ryegrass","Italian ryegrass; Rate 250 g/ha, 0 to 100 scale",40
same,"Plant response rating, I. Ryegrass",Italian ryegrass; [13],30
same,"Plant response rating, I. Ryegrass",Italian ryegrass; [14],50
same,"Plant response rating, Wild oat",wild oat [3]; [13],40
same,"Plant response rating, Wild oat",wild oat [3]; [14],50
same,Wild oats plant response rating,wild oat [4]; [5],0
same,Wild oats plant response rating,wild oat [4]; [6],0
same,Wild oats plant response rating,wild oat [4]; [7],0
same,"Plant response rating, Wild oats",wild oat [4]; [8],0
same,"Plant response rating, Wild oats",wild oat [4]; [9],0
same,Wild oats plant response rating,wild oat [4]; [10],2
same,Wild oats plant response rating,wild oat [4]; [11],0
same,Wild oats plant response rating,wild oat [4]; [12],0
same,Crabgrass plant response rating,crabgrass; [5],0
same,Crabgrass plant response rating,crabgrass; [6],0
same,Crabgrass plant response rating,crabgrass; [7],2
same,"Plant response rating, Crabgrass",crabgrass; [8],4
same,"Plant response rating, Crabgrass",crabgrass; [9],4
same,Crabgrass plant response rating,crabgrass; [10],7
same,Crabgrass plant response rating,crabgrass; [11],0
same,Crabgrass plant response rating,crabgrass; [12],0
same,Wheat plant response rating,wheat; [5],0
same,Wheat plant response rating,wheat; [6],0
same,Wheat plant response rating,wheat; [7],0
same,"Plant response rating, Wheat",wheat; [8],0
same,"Plant response rating, Wheat",wheat; [9],0
same,Wheat plant response rating,wheat; [10],0
same,Wheat plant response rating,wheat; [11],0
same,Wheat plant response rating,wheat; [12],0
same,"Plant response rating, Barley (winter)","winter barley; Rate 250 g/ha, 0 to 100 scale",20
same,"Plant response rating, Barley (winter)",winter barley; [13],40
same,"Plant response rating, Barley (winter)",winter barley; [14],40
same,S. Flatsedge plant response rating,smallflower flatsedge; [5],0
same,S. Flatsedge plant response rating,"smallflower flatsedge; Rate 125 g/ha, Postemergence section (flood test species), scale 0 to 10, 0 no effect, 10 complete control",0
same,S. Flatsedge plant response rating,"smallflower flatsedge; Rate 500 g/ha, listed under Postemergence (flood test species), scale 0 to 10, 0 no effect, 10 complete control",0
same,S. Flatsedge plant response rating,"smallflower flatsedge; flood test, listed under Postemergence, Rate 250 g/ha, scale 0 to 10, 0 no effect, 10 complete control",0
C=C(C)CCn1c(=O)on(C(=O)N(c2ccc(F)cc2)C(C)C)c1=O [Compound 199],Soybean plant response rating,soybean; [15],0
same,Soybean plant response rating (0 to 10 scale),soybean; [16],0
same,Soybean plant response rating,soybean; [17],0
same,"Plant response rating, Soybean",soybean; [18],0
same,Soybean plant response rating,soybean; [19],2
same,Soybean plant response rating,soybean; [20],2
same,"Plant response rating (0 to 10; 0 is no effect, 10 is complete control), Soybean","soybean; Rate 250 g/ha, Postemergence",7
same,Soybean plant response rating,soybean; [21],7
same,"Plant response rating, Wheat (winter)","winter wheat [1]; Rate 62 g/ha, 0 to 100 scale",50
same,"Plant response rating, Wheat (winter)","winter wheat [1]; Rate 125 g/ha, 0 to 100 scale",55
same,"Plant response rating, Wheat (winter)",winter wheat [2]; [22],60
same,"Plant response rating, Wheat (winter)",winter wheat [2]; [23],70
same,Wheat (winter) plant response rating (0 to 100 scale),winter wheat [2]; Rate 250 g/ha,50
same,"Plant response rating, Green foxtail",green foxtail; [22],100
same,"Plant response rating, Green foxtail",green foxtail; [23],100
same,Green foxtail plant response rating (0 to 100 scale),green foxtail; Rate 250 g/ha,100
same,"Plant response rating, Blackgrass",blackgrass; [22],60
same,"Plant response rating, Blackgrass",blackgrass; [23],65
same,Blackgrass plant response rating (0 to 100 scale),blackgrass; Rate 250 g/ha,60
same,"Plant response rating, I. Ryegrass",Italian ryegrass; [22],70
same,"Plant response rating, I. Ryegrass",Italian ryegrass; [23],60
same,I. Ryegrass plant response rating (0 to 100 scale),Italian ryegrass; Rate 250 g/ha,70
same,"Plant response rating, Wild oat",wild oat [3]; [22],60
same,"Plant response rating, Wild oat",wild oat [3]; [23],70
same,Wild oat plant response rating (0 to 100 scale),wild oat [3]; Rate 250 g/ha,80
same,Wild oats plant response rating,wild oat [4]; [15],0
same,Wild oats plant response rating,wild oat [4]; [17],4
same,"Plant response rating, Wild oats",wild oat [4]; [18],7
same,Wild oats plant response rating,wild oat [4]; [19],0
same,Wild oats plant response rating,wild oat [4]; [20],0
same,"Plant response rating (0 to 10; 0 is no effect, 10 is complete control), Wild oats","wild oat [4]; Rate 250 g/ha, Postemergence",0
same,Crabgrass plant response rating,crabgrass; [15],6
same,Crabgrass plant response rating (0 to 10 scale),crabgrass; [16],6
same,Crabgrass plant response rating,crabgrass; [17],10
same,"Plant response rating, Crabgrass",crabgrass; [18],10
same,Crabgrass plant response rating,crabgrass; [19],0
same,Crabgrass plant response rating,crabgrass; [20],2
same,"Plant response rating (0 to 10; 0 is no effect, 10 is complete control), Crabgrass","crabgrass; Rate 250 g/ha, Postemergence",8
same,Crabgrass plant response rating,crabgrass; [21],8
same,Wheat plant response rating,wheat; [15],0
same,Wheat plant response rating,wheat; [17],0
same,"Plant response rating, Wheat",wheat; [18],0
same,Wheat plant response rating,wheat; [19],0
same,Wheat plant response rating,wheat; [20],2
same,"Plant response rating (0 to 10; 0 is no effect, 10 is complete control), Wheat","wheat; Rate 250 g/ha, Postemergence",3
same,"Plant response rating, Barley (winter)",winter barley; [22],70
same,"Plant response rating, Barley (winter)",winter barley; [23],70
same,Barley (winter) plant response rating (0 to 100 scale),winter barley; Rate 250 g/ha,70
same,S. Flatsedge plant response rating,"smallflower flatsedge; Rate 62 g/ha, Postemergence section, flood test species, scale of 0 to 10 where 0 is no effect and 10 is complete control",0
same,S. Flatsedge plant response rating,"smallflower flatsedge; Rate 125 g/ha, listed under Postemergence (flood test species), scale 0 to 10",0
same,"Plant response rating (0 to 10; 0 is no effect, 10 is complete control), S. Flatsedge","smallflower flatsedge; Rate 250 g/ha, Postemergence section, flood test species",2
same,S. Flatsedge plant response rating,"smallflower flatsedge; Rate 500 g/ha, listed under Postemergence (flood test species), scale 0 to 10",7
